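Five compound concentrations were applied to cells in 96-well plates for 48 hours; endpoints were derived by simple linear interpolation of the resulting dose-response curve. GI50: concentration for 50% inhibition of growth.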 Active and inactive are the calls of the source. Rule as the data show it: active = GI50 up to about 1.1 µM and inactive = higher.
Legend:
Assay in all cases: NCI-60 cell line screen, 48 h
OVCAR-3 = system: OVCAR-3
SN12C = system: SN12C
UACC-257 = system: UACC-257
Hs-578T = system: Hs-578T
HOP-92 = system: HOP-92
SR = system: SR
OVCAR-8 = system: OVCAR-8
SK-MEL-5 = system: SK-MEL-5
SNB-75 = system: SNB-75
T47D = system: T47D
CCRF-CEM = system: CCRF-CEM
KM12 = system: KM12
NCI-H23 = system: NCI-H23
HCT-116 = system: HCT-116
A549 = system: A549
ACHN = system: ACHN
NCI-H460 = system: NCI-H460
SF-539 = system: SF-539
K562 = system: K562
SK-OV-3 = system: SK-OV-3

| Compound | GI50 (OVCAR-3) | GI50 (SN12C) | GI50 (UACC-257) | GI50 (Hs-578T) | GI50 (HOP-92) | GI50 (SR) | GI50 (OVCAR-8) | GI50 (SK-MEL-5) | GI50 (SNB-75) | GI50 (T47D) | GI50 (CCRF-CEM) | GI50 (KM12) | GI50 (NCI-H23) | GI50 (HCT-116) | GI50 (A549) | GI50 (ACHN) | GI50 (NCI-H460) | GI50 (SF-539) | GI50 (K562) | GI50 (SK-OV-3) |
| --- | --- | --- | --- | --- | --- | --- | --- | --- | --- | --- | --- | --- | --- | --- | --- | --- | --- | --- | --- | --- |
| COc1nc2ccc(Cl)c(C(O)c3ccccc3)c2nc1OC (configuration not stated) | 24.1 µM (inactive) | 19.7 µM (inactive) | 24.6 µM (inactive) | 14.9 µM (inactive) | 12.9 µM (inactive) | 6.52 µM (inactive) | 29 µM (inactive) | 15.6 µM (inactive) | 33 µM (inactive) | 19.8 µM (inactive) | 12.6 µM (inactive) | 29.9 µM (inactive) | 17.2 µM (inactive) | 16.2 µM (inactive) | 23.8 µM (inactive) | 30.2 µM (inactive) | 25.8 µM (inactive) | 18.3 µM (inactive) | 18.6 µM (inactive) | – |
| Cc1ccc(C)c2c1C/C(=C\c1ccccc1C(=O)O)C2=O | 54.2 µM (inactive) | > 100 µM (inactive) | > 100 µM (inactive) | > 100 µM (inactive) | > 100 µM (inactive) | 36.1 µM (inactive) | > 100 µM (inactive) | 42.7 µM (inactive) | > 100 µM (inactive) | > 100 µM (inactive) | 55.6 µM (inactive) | > 100 µM (inactive) | > 100 µM (inactive) | > 100 µM (inactive) | 90.8 µM (inactive) | > 100 µM (inactive) | > 100 µM (inactive) | 18.5 µM (inactive) | 87.7 µM (inactive) | – |
| c1ccc(P(CCP(c2ccccn2)c2ccccn2)c2ccccc2)cc1 | < 0.0172 µM (active) | 14 µM (inactive) | < 0.0185 µM (active) | 7.67 µM (inactive) | 3.01 µM (inactive) | 19.4 µM (inactive) | 0.108 µM (active) | 21.5 µM (inactive) | 0.863 µM (active) | 0.0435 µM (active) | – | 0.286 µM (active) | < 0.01 µM (active) | 0.0192 µM (active) | 0.0736 µM (active) | 23.3 µM (inactive) | 0.196 µM (active) | 0.577 µM (active) | 0.0783 µM (active) | 48.9 µM (inactive) |
| COC(=O)[C@@H]1CS(=O)(=O)C(C(C)C)N1C(C)=O (some centres not stated) | > 100 µM (inactive) | > 100 µM (inactive) | > 100 µM (inactive) | > 100 µM (inactive) | > 100 µM (inactive) | > 100 µM (inactive) | > 100 µM (inactive) | > 100 µM (inactive) | > 100 µM (inactive) | > 100 µM (inactive) | – | > 100 µM (inactive) | > 100 µM (inactive) | > 100 µM (inactive) | > 100 µM (inactive) | > 100 µM (inactive) | > 100 µM (inactive) | > 100 µM (inactive) | > 100 µM (inactive) | > 100 µM (inactive) |
| C[C@H](CCC(=O)O)[C@H]1CC[C@H]2[C@@H]3C(=O)C[C@@H]4C[C@H](O)CC[C@]4(C)[C@H]3C[C@H](O)[C@]12C | – | > 100 µM (inactive) | > 100 µM (inactive) | < 0.01 µM (active) | > 100 µM (inactive) | > 100 µM (inactive) | > 100 µM (inactive) | – | 85.5 µM (inactive) | > 100 µM (inactive) | > 100 µM (inactive) | > 100 µM (inactive) | > 100 µM (inactive) | > 100 µM (inactive) | > 100 µM (inactive) | > 100 µM (inactive) | > 100 µM (inactive) | > 100 µM (inactive) | > 100 µM (inactive) | – |
| CO[C@H]1C[C@H](O[C@H]2CC[C@]3(C=O)[C@H]4CC[C@]5(C)[C@@H](C6=CC(=O)OC6)CC[C@]5(O)[C@@H]4CC[C@]3(O)C2)O[C@H](C)[C@H]1O [CYMARIN] | 0.146 µM (active) | 0.042 µM (active) | 0.37 µM (active) | 0.525 µM (active) | 0.341 µM (active) | 0.409 µM (active) | 0.307 µM (active) | 0.0993 µM (active) | 0.4 µM (active) | 0.384 µM (active) | – | 0.402 µM (active) | 0.157 µM (active) | 0.163 µM (active) | 0.0805 µM (active) | 0.0912 µM (active) | 0.112 µM (active) | 0.0809 µM (active) | 0.184 µM (active) | 0.114 µM (active) |

Reference: ChEMBL document CHEMBL1201862, “PubChem BioAssay data set” (2004)
